Assay results as given in PubChem BioAssay (NCI).
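Following 48 hours of exposure in 96-well plates, responses at five concentrations were used to interpolate endpoints linearly. GI50 is the concentration that inhibits growth by half. TGI: total growth inhibition.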

How the values were obtained:
Experiment in all cases: NCI anticancer screen, dose series, 48 h
CAKI-1 renal = tested on: CAKI-1 renal
HCC-2998 colon = tested on: HCC-2998 colon
HS 578T breast = tested on: HS 578T breast
LOX IMVI melanoma = tested on: LOX IMVI melanoma
MDA-MB-435 = tested on: MDA-MB-435
OVCAR-3 ovarian = tested on: OVCAR-3 ovarian
SF-268 CNS = tested on: SF-268 CNS
SK-MEL-2 melanoma = tested on: SK-MEL-2 melanoma
SK-OV-3 ovarian = tested on: SK-OV-3 ovarian
T-47D breast = tested on: T-47D breast

SMILES	GI50 (CAKI-1 renal) [µM]	TGI (CAKI-1 renal) [µM]	GI50 (HCC-2998 colon) [µM]	TGI (HCC-2998 colon) [µM]	GI50 (HS 578T breast) [µM]	TGI (HS 578T breast) [µM]	GI50 (LOX IMVI melanoma) [µM]	TGI (LOX IMVI melanoma) [µM]	GI50 (MDA-MB-435) [µM]	TGI (MDA-MB-435) [µM]	GI50 (OVCAR-3 ovarian) [µM]	TGI (OVCAR-3 ovarian) [µM]	GI50 (SF-268 CNS) [µM]	TGI (SF-268 CNS) [µM]	GI50 (SK-MEL-2 melanoma) [µM]	TGI (SK-MEL-2 melanoma) [µM]	GI50 (SK-OV-3 ovarian) [µM]	TGI (SK-OV-3 ovarian) [µM]	GI50 (T-47D breast) [µM]	TGI (T-47D breast) [µM]
O=C1c2ccn(CCCCN3CCCCC3)c2C(=O)c2c1c(O)c1ccccc1c2O	1.63	3.83	2.95	9.98	27	65.1	1.72	4.3	2.19	5.27	10.5	41.9	14.9	42.7	> 100	> 100	15.8	43.4	23.6	> 59.6
NCCP(=O)(O)O	–	> 100	–	> 100	–	> 100	–	> 100	–	> 100	–	> 100	–	> 100	–	> 100	–	> 100	–	> 100
CC(CN1CCN(CC(C)Nc2ccnc3cc(Cl)ccc23)CC1)Nc1ccnc2cc(Cl)ccc12 (centres undefined)	–	> 100	–	50.2	2.55	9.69	–	8.19	2.74	9.38	–	> 64.4	–	> 36	25.8	62.7	–	76.7	35.2	74.6
CC(O)(CNS(=O)(=O)c1ccccc1)c1ccccc1 (centres undefined)	–	> 100	–	–	–	> 100	–	> 100	–	> 100	–	> 100	–	> 100	–	> 100	–	> 100	–	> 100
COc1cc(C2=NN(c3ccc(S(N)(=O)=O)cc3)C(c3ccc(Cl)cc3)C2)cc(OC)c1OC (centres undefined)	–	–	6.93	> 100	3.58	> 100	5.15	> 100	3.74	> 100	4.68	> 100	6.86	> 100	3.35	14.1	6.91	> 100	1.74	14.7
COc1cc(-c2cc(/C=C3\C(=O)Nc4ccccc43)[nH]n2)cc(OC)c1OC	–	–	13.1	29.4	5.43	62.8	2.43	7.94	2.38	6.25	3.21	14.5	3.76	17.2	2.27	5.57	5	26.7	1.74	6.99
CCc1c(O)c2c(c(O)c1C(C)=O)C(=O)c1c(cc(O)c(C(=O)O)c1C(=O)O)C2=O	–	> 100	–	> 100	–	> 100	–	> 100	–	> 100	–	> 100	–	> 100	–	> 100	–	> 100	–	> 100
O=C(O)c1cscc1Cc1cccs1	–	> 100	–	–	–	> 100	–	> 100	–	> 100	–	> 100	–	> 100	–	> 100	–	> 100	–	> 100
C[C@@H](Oc1ccc2[nH]nc(/C=C/c3cnn(CCO)c3)c2c1)c1c(Cl)cncc1Cl	0.184	> 100	1.43	5.21	0.106	0.681	0.0593	0.281	0.866	3.12	0.462	3.56	0.177	1.49	1.37	3.08	1.29	6.15	1.31	7.69
COc1ccc(Cl)cc1NC(=O)c1cccc([N+](=O)[O-])c1O	–	> 64.8	–	62.1	–	70.2	–	> 84.2	–	> 100	–	33	–	> 100	–	24.8	–	> 77.9	–	> 100
Cc1cc(C)n(C(=O)c2nn(-c3ccc(Cl)cc3)cc2O)n1	4.23	42.3	15.1	> 100	3.21	> 100	3.94	> 100	3.94	> 100	12.7	87.7	4.13	> 100	–	–	7.04	66.1	3.67	> 100
NC(Cc1ccnnc1)C(=O)O (centres undefined)	–	> 100	–	> 100	–	> 100	–	> 100	–	> 100	–	> 100	–	> 100	–	> 100	–	> 100	–	> 100
C=CCC(N[C@H](CO)c1ccccc1)c1cn(S(=O)(=O)c2ccc(C)cc2)c2ccccc12 (some centres undefined)	11.5	37.3	15.8	33.4	24.3	60.5	13.7	27	19	46.8	> 100	> 100	> 100	> 100	32.2	> 100	59.7	> 100	55.9	> 100
C#Cc1cccc(Oc2ccc(NC(=O)CCl)cc2)c1	> 82.5	> 82.5	> 82.5	> 82.5	> 82.5	> 82.5	18.1	> 82.5	> 82.5	> 82.5	> 82.5	> 82.5	> 82.5	> 82.5	> 82.5	> 82.5	> 82.5	> 82.5	> 82.5	> 82.5
CCCCCCCCCCCCCC(=O)C(C)N (centres undefined)	10	22.6	2.87	8.2	9.16	29.1	1.88	3.66	13.8	28	14.1	28.3	3.96	16	16	31.2	9.36	22	2.17	5.5
COC(=O)OCc1ccc2c(c1)C(=O)c1c-2n(CCCBr)c(=O)c2cc([N+](=O)[O-])ccc12	35.5	75.4	61.3	> 100	31	> 100	74.3	> 100	> 100	> 100	> 100	> 100	> 100	> 100	> 100	> 100	31.1	> 100	> 100	> 100

SMILES	GI50 (CAKI-1 renal) [µM]	TGI (CAKI-1 renal) [µM]	GI50 (HCC-2998 colon) [µM]	TGI (HCC-2998 colon) [µM]	GI50 (HS 578T breast) [µM]	TGI (HS 578T breast) [µM]	GI50 (LOX IMVI melanoma) [µM]	TGI (LOX IMVI melanoma) [µM]	GI50 (MDA-MB-435) [µM]	TGI (MDA-MB-435) [µM]	GI50 (OVCAR-3 ovarian) [µM]	TGI (OVCAR-3 ovarian) [µM]	GI50 (SF-268 CNS) [µM]	TGI (SF-268 CNS) [µM]	GI50 (SK-MEL-2 melanoma) [µM]	TGI (SK-MEL-2 melanoma) [µM]	GI50 (SK-OV-3 ovarian) [µM]	TGI (SK-OV-3 ovarian) [µM]	GI50 (T-47D breast) [µM]	TGI (T-47D breast) [µM]
O=[N+]([O-])c1ccc(/C=C(/c2ccc([N+](=O)[O-])o2)S(=O)(=O)c2ccccc2)o1	–	33	–	–	–	44.3	–	–	–	29	–	29	–	32.4	–	35.8	–	90.8	–	> 100
Nc1ccc2ccc(NS(=O)(=O)N3CCCCC3)cc2c1	0.584	> 100	0.707	> 24.8	0.396	5.99	1.03	> 100	–	–	–	–	1.57	> 100	–	> 100	0.498	–	0.381	> 75.3
N#C/C(N)=C(\C#N)N=Cc1csc2ccccc12	43.3	> 100	90.4	> 100	13.1	58.9	26.3	66.3	36.2	> 100	19.1	47.8	–	–	> 100	> 100	20.2	46	1.07	28.5
CCOC(=O)N[C@H]1CCc2c(Br)c(OC)c(OC)c(OC)c2-c2ccc(SC)c(=O)cc21	< 0.0228	19.6	< 0.0155	1.41	< 0.01	37.3	< 0.01	12.5	< 0.01	–	< 0.01	–	0.0125	15	–	–	< 0.01	59.4	–	–
C(=C\c1nccc2c1[nH]c1ccccc12)/c1ccccc1	–	–	2.96	9.43	2.35	9.34	2.99	12.2	0.356	1.81	2.31	6.65	5.23	> 100	5.82	39.7	2.97	13.4	3.6	28.2
O=C(O)c1cc(Cc2ccc(O)c(C(=O)O)c2)ccc1O (tested in a mixture with another compound)	1.36	3.69	1.9	3.73	3.78	40.4	2.99	15.7	4.2	16	9.75	22.3	7.88	26.1	–	–	11.4	24.6	2.67	13.2
C1=C(c2ccccc2)C(c2ccc(OCCN3CCCCC3)cc2)Oc2ccccc21 (centres undefined)	1.34	2.75	1.72	3.38	2.18	5.23	1.65	3.01	1.64	3.03	1.88	4.14	2.66	9.93	2.03	4.33	–	–	1.04	2.78
CO[C@@]12C[C@H]3[C@@H]([C@@H](O)[C@@H](OC(=O)/C=C/c4ccccc4)[C@@]4(O)C(C)(C)CCC[C@]34C)[C@@H](C)C1=CC(=O)O2	6.76	30.8	–	–	7.8	29.3	4.14	15.6	4.85	28.2	2.01	11.6	6.78	72.8	27	> 100	–	–	–	–
COc1ccc(/C=C(/C)[N+](=O)[O-])cc1	–	6.07	–	3.43	–	27.3	–	–	–	4.16	–	3.26	–	9.42	–	10.8	–	17.9	–	> 100
Cc1cc(C)c2c(SCc3ccc(Cl)cc3Cl)nc(N)nc2n1	–	> 100	–	–	–	> 100	–	> 100	–	> 100	–	76.2	–	> 100	–	> 100	–	> 100	–	47
C/C1=C/C(=O)O[C@@H]2C[C@@H](CC[C@H](C)/C=C\C=C\CC1)O[C@@](OCCc1ccccc1)([C@@H]1CSC(=O)N1)C2	0.0222	0.0811	6	> 17.5	0.028	0.0973	0.0316	–	0.324	6.12	0.17	0.607	0.0784	0.377	0.917	> 13.8	0.116	> 5.4	–	–
COc1ccc(/C=C/C(=O)c2cc3c(N)c(C(=O)Nc4ccccc4C)sc3nc2C)cc1	0.392	> 50	1.09	3.61	0.188	> 50	0.768	5.21	–	–	0.168	0.955	1.24	> 50	0.387	> 50	0.605	> 50	0.322	> 50
C=C1CC2(CCCC3(CC(=C)C(=O)O3)C2(C)C)OC1=O (centres undefined)	–	7.43	–	–	–	58	–	3.77	–	10.1	–	6.78	–	55.5	–	27.7	–	46.2	–	21.3
C1=C(c2ccccc2)SC=C(c2ccccc2)S1	–	> 100	–	–	–	> 100	–	> 100	–	32.2	–	> 100	–	> 100	–	–	–	> 100	–	> 100
CCCCCCNc1nc(N2CCOCC2)c2[nH]c(NCCCCCC)nc2n1	1.53	2.97	1.7	3.07	1.37	3.16	1.48	2.8	–	–	1.76	3.14	1.78	3.44	1.89	3.51	1.73	3.14	–	–
